Assay [1] concerns Huh-7. The experiment in a line: Cytotoxicity against human Huh-7 cells assessed as reduction in cell viability by Neutral Red staining based assay. It counts as functional.
Assay [2] has as its system Huh-7. The experiment in a line: Cytotoxicity against human Huh-7 cells assessed as reduction in cell viability by LDH release assay. It counts as functional. In general terms: LDH in the medium is a marker of cell lysis.
In assay [3] the test system is Hepatitis B virus. The experiment in a line: Antiviral activity against HBV infected in human HePAD38 cells assessed as reduction in of intracellular HBV DNA incubated for 5 days by Southern blotting analysis. Type of assay: functional, organism-based. To be noted: HePAD38, 120 h.
Assay [4] deals with Hepatitis B virus. The experiment in a line: Antiviral activity against lamivudine resistant HBV infected in human HepG2 cells assessed as reduction in of intracellular HBV DNA incubated for 5 days by Southern blotting analysis. It counts as functional, organism-based. To be noted: HepG2, 120 h.
Assay [5] has as its system Hepatitis B virus. The experiment in a line: Antiviral activity against adefovir-resistant HBV infected in human HepG2 cells assessed as reduction in of intracellular HBV DNA incubated for 5 days by Southern blotting analysis. To be noted: HepG2, 120 h. Type of assay: functional, organism-based.
Assay [6] deals with Hepatitis B virus. The experiment in a line: Antiviral activity against HBV infected in human HepG2.2.15.7 cells assessed as reduction in HBV DNA replication by TR-PCR analysis. Type of assay: functional, organism-based.
The test system of assay [7] is Hepatitis B virus. The experiment in a line: Antiviral activity against wild type HBV infected in human HepG2 cells assessed as reduction in HBV DNA replication by RT-PCR analysis. It counts as functional, organism-based.
Assay [8] has as its system Hepatitis B virus. The experiment in a line: Antiviral activity against lamivudine-resistant HBV infected in human HepG2 cells assessed as reduction in HBV DNA replication by RT-PCR analysis. It counts as functional, organism-based.

2 molecules from ChEMBL document CHEMBL5620351, “Advancing beyond reverse transcriptase inhibitors: The new era of hepatitis B polymerase inhibitors” (Eur J Med Chem, 2023) can be followed below.

A word on the CC50: it is the concentration that lowers cell viability or growth by half. The term EC50 denotes the midpoint of the concentration-response curve.

For the molecule `Nc1nc(O)c2ncn([C@H]3CC[C@@H](CO)O3)c2n1`, the CC50 in the assay with Huh-7 [1] is 26 µM; in the assay with Huh-7 [2], 97 µM. The EC50 in the assay on Hepatitis B virus [3] is 0.3 µM; in the assay on Hepatitis B virus [4], 0.89 µM; in the assay on Hepatitis B virus [5], 0.66 µM.
For `Clc1ccc(/C=C/c2cc(Cl)cc(Cl)c2)cc1`, the results for the EC50 in the assay on Hepatitis B virus [6], in the assay with Hepatitis B virus [7] and with Hepatitis B virus [8] were 14.4 µM, 13.3 µM and 16.4 µM, respectively.
